# Counter-ions that a name gives are not always drawn. Like-named read-outs stand apart in the source and are kept apart here.
# Legend:
# [1] = Solubility (Sol., Table 1); assay type: physicochemical
# pH (Table 1) = assay type: physicochemical
# [2] = test system: Escherichia coli (ATCC 25922); assay: Minimum inhibitory concentration (MIC) assay, Example 33; assay type: cell-based
# Method: (§1) Thirty compounds were tested for antimicrobial activity using standard procedures and standard strains for both the minimum inhibitory concentration (MIC) assay and a time kill study. Both the MIC assay and the time kill study were performed according to Clinical and Laboratory Standards Institute (CLSI) guidelines. Three bacteria strains, Escherichia coli (ATCC 25922), Pseudomonas aeruginosa (ATCC 27853), Staphulococcus aureus (ATCC 29213), and two fungus strains, Candida albicans (ATCC 90029) and Aspergillus niger (CMCC 98003), were used in the experiments.
# (§2) Preparation of cultures. Before the experiment, two days for the bacteria strains and five days for fungus strains, an aliquot was removed from the cultures frozen at −80° C. Medium was added to the surface of an appropriate agar plate and streaked with the aliquot. The plate was incubated for 20 to 24 hrs at 35±2° C. for bacteria or for 5 days at 26-30° C. in incubator for fungus. From the resulting growth on each plate, one isolated colony of similar morphology was selected and re-streaked onto a fresh agar plate using a sterile disposable loop. The plate was incubated 20 to 24 hrs at 35±2° C. or for 5 days at 26-30° C. in an incubator.
# (§3) Preparation of Assay Plates with Medium and Drugs. On the day of the assay, CAMHB medium or RPMI 1640 medium was removed from 4′C storage and allowed to reach room temperature. Ninety microliters (μL) of room temperature CAMHB or RPMI 1640 (supplemented with the appropriate concentration of DMSO, if required) were added to rows B-G of each 96-well microtiter plate. Using a pipette, duplicate 180 μL aliquots of each drug stock solution were added to column 1 (e.g. A1 and B1 or C1 and D1 or E1 and F1 or G1 and H1). Using a multichannel pipette or the Provision 2000 liquid handler, serial 2-fold dilutions (90 μL) were performed in each row across the plate to row G. Eighty μL of compounds dilutions were transferred to a 96-deep well plate. Medium, 1,520 μL of CAMHB or RPMI 1640, was added to each well. The contents of the wells were mixed thoroughly. A 50 μL aliquot of each of the resulting mixtures was transferred to a 96-well assay plate.
# (§4) For bacteria, a sterile inoculating loop was used to transfer growth from an agar plate culture into about 5 mL of test medium. Using a turbidity meter, this inoculum was adjusted so that its density (600 nm) was equivalent to a 0.5 McFarland barium sulfate standard (0.08-0.13). The resulting suspension was diluted 1:100 into medium to obtain two times test inoculums.
# (§5) For Aspergillus niger, sporulating colonies were covered with RPMI 1640, and a suspension was prepared by gently probing the colonies with the tip of a transfer pipette. The suspension was transferred to a sterile tube and mixed with a vortex mixer for 15 seconds. The densities at 530 nm were adjusted to 0.09-0.13 for each sample. The resulting suspension was diluted 1:50 with the medium to obtain two times test inoculums. Fifty μL/well of this inoculum suspension was added to wells of drug-containing plates (1:2 dilution). Plates were incubated at 35° C. for the appropriate times. The MIC was read and recorded according to CLSI guidelines.
# (§6) The MIC values for thirty compounds against Escherichia coli, Pseudomonas aeruginosa, Staphulococcus aureus, Candida albicans, and Aspergillus niger were recorded and are presented in Table 3 and Table 4.
# [3] = test system: Pseudomonas aeruginosa (ATCC 27853); assay: as above; assay type: cell-based
# Method: as §1, §2, §3, §4, §5, §6
# [4] = test system: Staphylococcus aureus (ATCC 29213); assay: Time kill study, Example 33 (0 to 5 min); assay type: cell-based; settings: 1×MIC
# Method: as §1
# (§7) The viable counts in Log10 CFU/mL at each time point were recorded.
# (§8) Time kill studies. Strain suspensions were prepared as described above for the MIC test, and strain suspensions and compound solutions were mixed in the same volume. Samples were removed at specified times including 0 min, 30 sec, 1 min and 5 mins, were diluted in the test medium and streaked on agar. Colonies were counted after 24 to 48 hrs of incubation. […]
# [5] = test system: Escherichia coli (ATCC 25922); assay: Time kill study, Example 33 (0 to 5 min); assay type: cell-based; settings: 1×MIC
# Method: as §1, §7, §8
# [6] = test system: Pseudomonas aeruginosa (ATCC 27853); assay: Time kill study, Example 33 (0 to 5 min); assay type: cell-based; settings: 1×MIC
# Method: as §1, §7, §8
# [7] = test system: Candida albicans (ATCC 90029); assay: Minimum inhibitory concentration (MIC) assay, Example 33; assay type: cell-based
# Method: as §1, §2, §3
# For Candida albicans, a sterile inoculating loop was used to transfer growth from an agar plate culture into a tube with RPMI1640 medium. This inoculum was adjusted so that its density at 530 nm was in the ranges from 0.08 to 0.13. The resulting suspension was diluted 1:50 and further diluted 1:20 with the medium to obtain two times test inoculums.
# as §5, §6
# [8] = test system: Aspergillus niger (CMCC 98003); assay: as above; assay type: cell-based
# Method: as §1, §2, §3, §5, §6
# [9] = test system: Staphulococcus aureus (ATCC 29213); assay: as above; assay type: cell-based, Staphylococcus aureus
# Method: as §1, §2, §3, §4, §5, §6
# [10] = test system: Candida albicans (ATCC 90029); assay: Time kill study, Example 33 (0 to 5 min); assay type: cell-based; settings: 1×MIC
# Method: as §1, §7, §8
structure (smiles),measurement,setting,value
"CCCCCCCCCCCCOC(=O)C(C)(C)N(C)C [Nex-58, Dodecyl 2-(dimethylamino)-2-methylpropanoate hydrochloride]",Sol.,[1],51%
same,pH,pH (Table 1),2.27
same,MIC,"[2]; Escherichia coli, ATCC25922, Table 19 summary of Example 33 and Example 35",3130 µg/mL
same,MIC,"[2]; Escherichia coli, ATCC25922, read-out: MIC E. coli, n = 1",3130 µg/mL
same,MIC,"[2]; Escherichia coli, ATCC25922, read-out: MIC E. coli, n = 2",3130 µg/mL
same,MIC,"[3]; Pseudomonas aeruginosa, ATCC27853, Table 19 summary",6250 µg/mL
same,MIC,"[3]; Pseudomonas aeruginosa, ATCC27853, read-out: MIC P. aeruginosa, n = 1",6250 µg/mL
same,MIC,"[3]; Pseudomonas aeruginosa, ATCC27853, read-out: MIC P. aeruginosa, n = 2",6250 µg/mL
same,"Viable counts, Staphylococcus aureus time kill study",[4]; 0.5 min,6.15 Log10 CFU/mL
same,"Viable counts, Staphylococcus aureus time kill study",[4]; 1 min,6.11 Log10 CFU/mL
same,"Viable counts, Staphylococcus aureus time kill study",[4]; 5 min,5.81 Log10 CFU/mL
same,"Viable counts, Staphylococcus aureus time kill study",[4]; time 0,6.26 Log10 CFU/mL
same,"Viable counts, Escherichia coli time kill study",[5]; 0.5 min,<4.0 Log10 CFU/mL
same,"Viable counts, Escherichia coli time kill study",[5]; 1 min,<3.70 Log10 CFU/mL
same,"Viable counts, Escherichia coli time kill study",[5]; 5 min,<3.52 Log10 CFU/mL
same,"Viable counts, Escherichia coli time kill study",[5]; time 0,5.91 Log10 CFU/mL
same,"Viable counts, Pseudomonas aeruginosa time kill study",[6]; 0.5 min,<4.0 Log10 CFU/mL
same,"Viable counts, Pseudomonas aeruginosa time kill study",[6]; 1 min,<3.70 Log10 CFU/mL
same,"Viable counts, Pseudomonas aeruginosa time kill study",[6]; 5 min,<3.52 Log10 CFU/mL
same,"Viable counts, Pseudomonas aeruginosa time kill study",[6]; time 0,5.54 Log10 CFU/mL
same,MIC,"[7]; Candida albicans, ATCC90029, Table 19 summary",> 12500 µg/mL
same,MIC,"[7]; Candida albicans, ATCC90029, read-out: MIC Candida albicans, n = 1",> 12500 µg/mL
same,MIC,"[7]; Candida albicans, ATCC90029, read-out: MIC Candida albicans, n = 2",> 12500 µg/mL
same,MIC,"[8]; Aspergillus niger, CMCC98003",> 12500 µg/mL
same,MIC,"[8]; Aspergillus niger, CMCC98003, read-out: MIC Aspergillus niger",> 12500 µg/mL
same,MIC Aspergillus niger,[8]; n = 2,>12500 µg/mL
same,MIC,"[9]; Staphylococcus aureus, ATCC29213, read-out: MIC S. aureus, n = 1",3130 µg/mL
same,MIC,"[9]; Staphylococcus aureus, ATCC29213, read-out: MIC S. aureus, n = 2",1560 µg/mL
"CCCCCCCCCCCCOC(=O)C(C)N(C)C (stereo not drawn) [Nex-15, Dodecyl 2-(dimethylamino)propanoate phosphate]",pH,pH (Table 1); phosphate,2.01
same,MIC (mg/ml),"[2]; Table 19 summary of Example 33 and Example 35, phosphate",≧12.5 mg/ml
same,MIC E. coli,"[2]; n = 1, phosphate",>12500 µg/mL
same,MIC E. coli,"[2]; n = 2, phosphate",>12500 µg/mL
same,MIC,"[3]; Table 19 summary, phosphate",>12500 µg/mL
same,MIC P. aeruginosa,"[3]; n = 1, phosphate",>12500 µg/mL
same,MIC P. aeruginosa,"[3]; n = 2, phosphate",>12500 µg/mL
same,"Viable counts, Staphylococcus aureus time kill study","[4]; 0.5 min, phosphate",6.16 Log10 CFU/mL
same,"Viable counts, Staphylococcus aureus time kill study","[4]; 1 min, phosphate",6.14 Log10 CFU/mL
same,"Viable counts, Staphylococcus aureus time kill study","[4]; 5 min, phosphate",6.14 Log10 CFU/mL
same,"Viable counts, Staphylococcus aureus time kill study","[4]; time 0, phosphate",6.23 Log10 CFU/mL
same,"Viable counts, Candida albicans time kill study","[10]; 0.5 min, phosphate",5.23 Log10 CFU/mL
same,"Viable counts, Candida albicans time kill study","[10]; 1 min, phosphate",5.25 Log10 CFU/mL
same,"Viable counts, Candida albicans time kill study","[10]; 5 min, phosphate",5.28 Log10 CFU/mL
same,"Viable counts, Candida albicans time kill study","[10]; time 0, phosphate",5.12 Log10 CFU/mL
same,MIC,"[7]; Table 19 summary, phosphate",50 µg/mL
same,MIC Candida albicans,"[7]; n = 1, phosphate",50 µg/mL
same,MIC Candida albicans,"[7]; n = 2, phosphate",50 µg/mL
same,MIC,"[8]; Table 19 summary, phosphate",12500 µg/mL
same,MIC Aspergillus niger,"[8]; n = 1, phosphate",12500 µg/mL
same,MIC S. aureus,"[9]; n = 1, phosphate",390 µg/mL
same,MIC S. aureus,"[9]; n = 2, phosphate",200 µg/mL
"CCCCCCCCCCCCOC(=O)C(C)N(C)C (stereo not drawn) [Nex-03, Dodecyl 2-(dimethylamino)propanoate sulfate]",pH,pH (Table 1); sulfate,1.60
same,MIC,"[2]; Table 19 summary of Example 33 and Example 35, sulfate",1560 µg/mL
same,MIC E. coli,"[2]; n = 1, sulfate",1560 µg/mL
same,MIC E. coli,"[2]; n = 2, sulfate",1560 µg/mL
same,MIC,"[3]; Table 19 summary, sulfate",3130 µg/mL
same,MIC P. aeruginosa,"[3]; n = 1, sulfate",3130 µg/mL
same,MIC P. aeruginosa,"[3]; n = 2, sulfate",3130 µg/mL
same,"Viable counts, Staphylococcus aureus time kill study","[4]; 0.5 min, sulfate",6.1 Log10 CFU/mL
same,"Viable counts, Staphylococcus aureus time kill study","[4]; 1 min, sulfate",6.12 Log10 CFU/mL
same,"Viable counts, Staphylococcus aureus time kill study","[4]; 5 min, sulfate",6.11 Log10 CFU/mL
same,"Viable counts, Staphylococcus aureus time kill study","[4]; time 0, sulfate",6.11 Log10 CFU/mL
same,"Viable counts, Escherichia coli time kill study","[5]; 0.5 min, sulfate",4.90 Log10 CFU/mL
same,"Viable counts, Escherichia coli time kill study","[5]; 1 min, sulfate",4.18 Log10 CFU/mL
same,"Viable counts, Escherichia coli time kill study","[5]; 5 min, sulfate",3.82 Log10 CFU/mL
same,"Viable counts, Escherichia coli time kill study","[5]; time 0, sulfate",4.92 Log10 CFU/mL
same,"Viable counts, Candida albicans time kill study","[10]; 0.5 min, sulfate",5.53 Log10 CFU/mL
same,"Viable counts, Candida albicans time kill study","[10]; 1 min, sulfate",5.54 Log10 CFU/mL
same,"Viable counts, Candida albicans time kill study","[10]; 5 min, sulfate",5.52 Log10 CFU/mL
same,"Viable counts, Candida albicans time kill study","[10]; time 0, sulfate",5.6 Log10 CFU/mL
same,"Viable counts, Pseudomonas aeruginosa time kill study","[6]; 0.5 min, sulfate",<4.0 Log10 CFU/mL
same,"Viable counts, Pseudomonas aeruginosa time kill study","[6]; 1 min, sulfate",<3.70 Log10 CFU/mL
same,"Viable counts, Pseudomonas aeruginosa time kill study",[6]; 5 min,<3.52 Log10 CFU/mL
same,"Viable counts, Pseudomonas aeruginosa time kill study","[6]; time 0, sulfate",5.6 Log10 CFU/mL
same,MIC Candida albicans,"[7]; n = 1, sulfate",12500 µg/mL
same,MIC Candida albicans,"[7]; n = 2, sulfate",6250 µg/mL
same,MIC,"[8]; Aspergillus niger, CMCC98003, n = 1, read-out: MIC Aspergillus niger",> 12500 µg/mL
same,MIC,"[8]; Aspergillus niger, CMCC98003, n = 2, read-out: MIC Aspergillus niger",> 12500 µg/mL
same,MIC,"[8]; Table 19 summary, sulfate",>12500 µg/mL
same,MIC,"[9]; Table 19 summary, sulfate",1560 µg/mL
same,MIC S. aureus,"[9]; n = 1, sulfate",1560 µg/mL
same,MIC S. aureus,"[9]; n = 2, sulfate",1560 µg/mL
